Test results from the supplement of paper PMC13207355.
Structures can show the parent of a compound that is named as a salt.

Tests used:
Conditions in all cases: exposure time: 72 h
E13 [1] = patient-derived glioblastoma stem cells of classical subtype; experiment: surviving fraction (nuclei count normalised to DMSO); higher = more cells surviving (less toxic)
E21 [2] = patient-derived glioblastoma stem cells of mesenchymal subtype; experiment: as above
E28 [3] = patient-derived glioblastoma stem cells of classical subtype; experiment: as above
E31 [4] = patient-derived glioblastoma stem cells of proneural subtype; experiment: as above
E34 [5] = patient-derived glioblastoma stem cells of proneural subtype; experiment: as above
E57 [6] = patient-derived glioblastoma stem cells of mesenchymal subtype; experiment: as above
FT3469 [7] = normal neural stem cell line; experiment: as above
E13 [8] = experiment: phenotypic distance (Euclidean, principal components) from DMSO controls (arbitrary units); higher = stronger morphological change
E21 [9] = experiment: as above
E28 [10] = experiment: as above
E31 [11] = experiment: as above
E34 [12] = experiment: as above
E57 [13] = experiment: as above
FT3469 [14] = experiment: as above
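Wherever phenotypic distance (Euclidean, principal components) from DMSO controls is given: cell Painting imaging in 384-well plates, CellProfiler features reduced to at least 20 principal components, Euclidean distance versus same-plate DMSO vehicle wells (0.1% v/v), median over six images per well.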
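Wherever surviving fraction (nuclei count normalised to DMSO) is given: nuclei counted by high-content imaging of Hoechst-stained cells in laminin-coated 384-well plates, relative to 0.1% DMSO vehicle wells, with staurosporine as cell-death control.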

Cc1ncc(CO)c(CO)c1O [Pyridoxine hydrochloride]
Conditions	phenotypic distance	surviving fraction
E13 [1], 4.1 nM	–	0.907
E13 [1], 12.3 nM	–	0.973
E13 [1], 37 nM	–	0.968
E13 [1], 111.1 nM	–	1.04
E13 [1], 333.3 nM	–	1.02
E13 [1], 1000 nM	–	0.905
E13 [1], 3000 nM	–	1.08
E13 [8], 4.1 nM	1.83	–
E13 [8], 12.3 nM	0.627	–
E13 [8], 37 nM	0.476	–
E13 [8], 111.1 nM	0.757	–
E13 [8], 333.3 nM	0.677	–
E13 [8], 1000 nM	0.715	–
E13 [8], 3000 nM	1.55	–
E21 [2], 4.1 nM	–	0.9
E21 [2], 12.3 nM	–	1.04
E21 [2], 37 nM	–	1.02
E21 [2], 111.1 nM	–	1.03
E21 [2], 333.3 nM	–	0.92
E21 [2], 1000 nM	–	1.06
E21 [2], 3000 nM	–	1.03
E21 [9], 4.1 nM	0.627	–
E21 [9], 12.3 nM	0.496	–
E21 [9], 37 nM	0.428	–
E21 [9], 111.1 nM	0.899	–
E21 [9], 333.3 nM	0.724	–
E21 [9], 1000 nM	0.617	–
E21 [9], 3000 nM	0.536	–
E28 [3], 4.1 nM	–	0.967
E28 [3], 12.3 nM	–	1.04
E28 [3], 37 nM	–	0.991
E28 [3], 111.1 nM	–	0.922
E28 [3], 333.3 nM	–	0.975
E28 [3], 1000 nM	–	0.968
E28 [3], 3000 nM	–	1.09
E28 [10], 4.1 nM	0.428	–
E28 [10], 12.3 nM	0.769	–
E28 [10], 37 nM	0.765	–
E28 [10], 111.1 nM	0.622	–
E28 [10], 333.3 nM	0.82	–
E28 [10], 1000 nM	1.01	–
E28 [10], 3000 nM	0.741	–
E31 [4], 4.1 nM	–	0.944
E31 [4], 12.3 nM	–	1.04
E31 [4], 37 nM	–	1.03
E31 [4], 111.1 nM	–	1.1
E31 [4], 333.3 nM	–	1.03
E31 [4], 1000 nM	–	1.01
E31 [4], 3000 nM	–	0.903
E31 [11], 4.1 nM	1.57	–
E31 [11], 12.3 nM	0.82	–
E31 [11], 37 nM	0.958	–
E31 [11], 111.1 nM	1.06	–
E31 [11], 333.3 nM	0.654	–
E31 [11], 1000 nM	0.523	–
E31 [11], 3000 nM	0.738	–
E34 [5], 4.1 nM	–	0.949
E34 [5], 12.3 nM	–	0.918
E34 [5], 37 nM	–	1.19
E34 [5], 111.1 nM	–	1.07
E34 [5], 333.3 nM	–	0.943
E34 [5], 1000 nM	–	0.916
E34 [5], 3000 nM	–	1.06
E34 [12], 4.1 nM	1.15	–
E34 [12], 12.3 nM	0.917	–
E34 [12], 37 nM	0.991	–
E34 [12], 111.1 nM	1.16	–
E34 [12], 333.3 nM	0.742	–
E34 [12], 1000 nM	0.612	–
E34 [12], 3000 nM	0.936	–
E57 [6], 4.1 nM	–	1.03
E57 [6], 12.3 nM	–	0.99
E57 [6], 37 nM	–	1.01
E57 [6], 111.1 nM	–	0.965
E57 [6], 333.3 nM	–	1.07
E57 [6], 1000 nM	–	0.984
E57 [6], 3000 nM	–	0.981
E57 [13], 4.1 nM	1.25	–
E57 [13], 12.3 nM	1.12	–
E57 [13], 37 nM	0.554	–
E57 [13], 111.1 nM	0.42	–
E57 [13], 333.3 nM	0.699	–
E57 [13], 1000 nM	0.559	–
E57 [13], 3000 nM	0.776	–
FT3469 [7], 4.1 nM	–	0.987
FT3469 [7], 12.3 nM	–	0.951
FT3469 [7], 37 nM	–	0.972
FT3469 [7], 111.1 nM	–	0.985
FT3469 [7], 333.3 nM	–	1.05
FT3469 [7], 1000 nM	–	1.09
FT3469 [7], 3000 nM	–	0.987
FT3469 [14], 4.1 nM	0.887	–
FT3469 [14], 12.3 nM	0.632	–
FT3469 [14], 37 nM	0.988	–
FT3469 [14], 111.1 nM	0.539	–
FT3469 [14], 333.3 nM	4.03	–
FT3469 [14], 1000 nM	0.686	–
FT3469 [14], 3000 nM	0.525	–
